What was measured:
[1] = test system: blowfly larvae (Lucilia cuprina); experiment: Blowfly larval bioassay; assay type: in vivo; conditions: for Blowfly bioassay, pupation, IC50: L. cuprina LS strain, number of pupae on Day 9 vs controls, 2 experiments; for Pupation IC50 relative to larval weight gain IC50: ratio of the two bioassay IC50 values; for Insecticidal activity in the blowfly bioassay (in words): blowfly larval bioassay
[2] = test system: HDAC activity of nuclear extracts from blowfly eggs; experiment: Fluorometric HDAC enzyme assay with nuclear extracts from blowfly eggs; assay type: biochemical, Lucilia cuprina; conditions: blowfly egg nuclear extract IC50 comparison
[3] = larval bioassay IC50 comparison

SMILES	Blowfly bioassay, pupation, IC50 [1] [μg/assay]	further results
CCCC(=O)OCOC(=O)C(C)(C)C [AN-9]	>1000	–
CCC(=O)CCCCC[C@@H]1NC(=O)[C@H]2CCCCN2C(=O)[C@H]([C@@H](C)CC)NC(=O)[C@H](Cc2cn(OC)c3ccccc23)NC1=O [Apicidin]	489	Pupation IC50 relative to larval weight gain IC50 [1]: 6 fold
O=C(/C=C/c1cccc(S(=O)(=O)Nc2ccccc2)c1)NO [Belinostat]	>1000	–
C#Cc1cccc(Nc2ncnc3cc(OC)c(OCCCCCCC(=O)NO)cc23)c1 [CUDC-101]	>1000	–
COc1ccc(-c2nc(N3CCOCC3)c3sc(CN(C)c4ncc(C(=O)NO)cn4)cc3n2)cn1 [CUDC-907]	13.8	Potency against blowfly larval growth relative to cyromazine (fold less potent) [1, 3]: approximately 10 fold; Pupation IC50 relative to larval weight gain IC50 [1]: approximately equal
Nc1nc(N)nc(NC2CC2)n1 [Cyromazine]	1.54	–
N#Cc1c(N)nc(NC2CC2)nc1N [Dicyclanil]	0.0634	–
O=C(NC(=O)c1c(F)cccc1F)Nc1ccc(Cl)cc1 [Diflubenzuron]	0.119	–
Nc1ccccc1NC(=O)c1ccc(CNC(=O)OCc2cccnc2)cc1 [Entinostat]	640	–
CCN(CC)Cc1ccc2cc(COC(=O)Nc3ccc(C(=O)NO)cc3)ccc2c1 [Givinostat]	>1000	–
Nc1ccccc1NC(=O)c1ccc(CNc2nccc(-c3cccnc3)n2)cc1 [Mocetinostat]	>1000	–
CCCCN(Cc1ccc(C(=O)NO)cc1)C(=O)Nc1ccccc1 [Nexturostat, Nexturastat A]	>1000	–
Cc1[nH]c2ccccc2c1CCNCc1ccc(/C=C/C(=O)NO)cc1 [Panobinostat]	393	–
C=C1C(=O)O[C@H]2[C@H]1CC/C(C)=C/CC[C@@]1(C)O[C@@H]21 [Parthenolide, parthenolide]	>1000	Insecticidal activity in the blowfly bioassay (in words) [1]: no insecticidal activity
CCCCc1nc2cc(/C=C/C(=O)NO)ccc2n1CCN(CC)CC [Pracinostat]	>1000	–
O=C(NCCSSCCNC(=O)/C(Cc1ccc(O)c(Br)c1)=N/O)/C(Cc1ccc(O)c(Br)c1)=N/O [Psammaplin A]	93.4	–
Cn1cc(CNCC2CCN(c3ncc(C(=O)NO)cn3)CC2)c2ccccc21 [Quisinostat]	274	–
CN(C)Cc1ccc(S(=O)(=O)n2ccc(/C=C/C(=O)NO)c2)cc1 [Resminostat]	>1000	–
C/C=C1\NC(=O)[C@H]2CSSCC/C=C/[C@H](CC(=O)N[C@H](C(C)C)C(=O)N2)OC(=O)[C@H](C(C)C)NC1=O [Romidepsin]	0.196	Potency against blowfly larval growth relative to cyromazine (fold more potent) [1, 3]: 10 fold; Potency against blowfly larval growth relative to dicyclanil ([1]; larval bioassay IC50 comparison, in words): equipotent; Pupation IC50 relative to larval weight gain IC50 [1]: ≤ 2 fold; Potency in nuclear extract HDAC assay relative to quisinostat (fold more potent) [2]: approximately 600 fold
CC(/C=C/C(=O)NO)=C\[C@@H](C)C(=O)c1ccc(N(C)C)cc1 [Trichostatin]	20.6	Potency against blowfly larval growth relative to cyromazine (fold less potent) [1, 3]: approximately 10 fold; Pupation IC50 relative to larval weight gain IC50 [1]: ≤ 2 fold
O=C(CCCCCCC(=O)Nc1ccc([C@H]2O[C@@H](CSc3nc(-c4ccccc4)c(-c4ccccc4)o3)C[C@@H](c3ccc(CO)cc3)O2)cc1)NO [Tubacin]	>1000	Insecticidal activity in the blowfly bioassay (in words) [1]: inactive
CN1CCc2c(c3ccccc3n2Cc2ccc(C(=O)NO)cc2)C1 [Tubastatin A]	>1000	Insecticidal activity in the blowfly bioassay (in words) [1]: inactive
CCCC(CCC)C(=O)O [Valproic acid]	>1000	–

From PMC5247571 (International Journal for Parasitology: Drugs and Drug …, 2017)
